Measured values published in publication PMC6199309, “A therapeutic approach to pantothenate kinase associated neurodegeneration” (Nature Communications, 2018).
In brackets after ≈: the same amount, converted by molar mass. Entries after “also recorded” stand apart in the source; their conditions may differ. Where a name gives a salt, the structure may show the parent alone.

Key:
[1] = PAMPA-BBB; type: in vitro ADME; conditions: BBB = Blood Brain Barrier, read-out: PAMPA-BBB, Avg Pe
[2] = Plasma stability; type: in vitro ADME; conditions: rat, read-out: Plasma Stability T1/2 (converted)
[3] = Plasma stability; type: in vitro ADME; conditions: mouse, read-out: Plasma Stability T1/2
[4] = Plasma stability; type: in vitro ADME; conditions: human, read-out: Plasma Stability T1/2
[5] = Solubility at pH 7.4
[6] = Microsomal stability; conditions: human, microsomes
[7] = PAMPA
[8] = Microsomal stability; conditions: rat, microsomes
[9] = Protein binding; conditions: rat
[10] = Microsomal stability; conditions: mouse, microsomes
[11] = target: T1, human PANK3 (Homo sapiens, UniProt Q9H999); experiment: PANK activity assay (radiochemical, without acetyl-CoA); type: biochemical
T1 construct: His; made in house
T1 sequence (Q9H999 whole entry): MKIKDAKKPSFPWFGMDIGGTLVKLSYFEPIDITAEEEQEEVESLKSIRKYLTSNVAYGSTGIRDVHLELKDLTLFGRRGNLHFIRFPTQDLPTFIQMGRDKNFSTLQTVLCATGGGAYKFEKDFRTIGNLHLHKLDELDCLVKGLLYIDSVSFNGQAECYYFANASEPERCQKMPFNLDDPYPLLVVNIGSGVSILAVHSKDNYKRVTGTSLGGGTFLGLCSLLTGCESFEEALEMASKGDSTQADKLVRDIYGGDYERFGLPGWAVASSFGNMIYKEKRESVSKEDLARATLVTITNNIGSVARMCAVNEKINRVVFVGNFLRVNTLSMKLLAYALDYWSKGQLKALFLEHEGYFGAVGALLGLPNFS

[12] = tested on: C3A cells; experiment: Intracellular CoA and metabolite levels in C3A cells; type: cell-based, human
Experimental: HEK293T cells (ATCC, #CRL-3216) were maintained in Dulbecco’s modified Eagle’s medium (DMEM, Biowhittaker/Lonza) supplemented with 10% FCS. Human C3A [HepG2/C3A, derivative of HepG2] cells (ATCC #CRL-10741) were purchased from ATCC® and maintained in Eagle’s minimum Essential medium (ATCC) supplemented with 2 mM glutamine, 10% fetal bovine serum (FCS, Altanta Biologicals), 50 U/ml penicillin and […] streptomycin. Both cell lines were confirmed to be mycoplasma-free. […]. […] After 24 h of treatment (total 48 h after transfection) the cells were washed with PBS and harvested and subjected to either total CoA or acetyl-CoA determinations.
Prior to labeling, cells were seeded at a density of 2–3 × 10^6 in 60 mm-dishes in reconstituted DMEM without added pantothenate and allowed to adhere overnight. The labeling was initiated by replacing the medium with 2 ml of labeling medium containing 0.1% dimethylsulfoxide (DMSO; control) or 10 μM of the compound in 0.1% DMSO. Cells were incubated for 24 h, the labeling medium was removed, and cells were washed with phosphate buffered saline and lysed by sonication in 20 mM Tris-HCl, pH 7.5, 2 mM DTT, 5 mM EDTA and 50 mM NaF. The lysates were fractionated by thin-layer chromatography after removal of the cell debris by centrifugation. The samples were spotted on Silica Gel H plates and resolved with 95% ethanol:28% ammonium hydroxide (4/1, v/v). The distribution of radioactivity on the plate was quantified using a Bioscan Imager (Bioscan, Inc.) together with quantification of the total cellular radioactivity determined by a Liquid Scintillation Analyzer (PerkinElmer Tri-Carb 2910 TR). Triplicate culture dishes were labeled for each group plus a dish for each group for determination of cell counts and viability using a Nucleocounter (New Brunswick Scientific) according to the manufacturer’s directions. The experiments were repeated twice in duplicate and the data represented is an overall average ± SEM.
Cultured cells or frozen tissues were resuspended in 2 ml cold water to which 500 μl of 0.25 M KOH was added, derivatized with monobromobimane (mBBr, Life technologies) and quantified by HPLC[23]. For acetyl-CoA determinations, C3A cells were resuspended in 1 ml water, added to 2 ml of methanol and 1 ml chloroform, and incubated on ice for 15 min. Chloroform 1.5 ml, 1.2 ml water and 30 pmol of [^13C2]acetyl-CoA (Sigma) was added, and centrifuged at 2000×g for 10 min. The top layer was loaded on a 2-(2-pyridyl) ethyl solid phase extraction column which was equilibrated with 1 ml 50% methanol/2% acetic acid. The column was washed twice with 1 ml 50% methanol/2% acetic acid and 1 ml water. CoA and thioesters were eluted twice with 1 ml 95% ethanol containing 50 mM ammonium hydroxide. Samples were resuspended in 90% methanol containing 15 mM ammonium hydroxide.
The mBBr derivatized sample was fractionated by reverse-phase HPLC using a Gemini C18 3 μm column (150 × 4.60 mm) from Phenomenex. The chromatography system was a Waters e2695 separation module with a UV/Vis and fluorescence detector and controlled by Empower 3 software. Solvent A was 50 mM potassium phosphate pH 4.6, and solvent B was 100% acetonitrile. Twenty microliters of sample was injected onto the column, and the flow rate was 0.5 ml/min. The HPLC program was the following: starting solvent mixture of 90% A/10% B, 0–2 min isocratic with 10% B, 2–6 min linear gradient from 10% B to 15% B, 6–18 min concave gradient from 15% B to 40% B, 18–23 min isocratic with 40% B, 23–25 min linear gradient from 40 to 10%, and 25–30 min isocratic with 10% B. The UV/vis detector was set at 393 nm, and the fluorescence detector was set with excitation at 393 nm and emission at 470 nm. […]

[13] = Protein binding; conditions: human
[14] = Protein binding; conditions: mouse
[15] = Caco2 permeability; type: in vitro ADME; conditions: human, Caco-2; read-out: Caco2 Permeability Efflux Ratio (B2A/A2B)
[16] = tested on: HEK293T cells; experiment: Intracellular CoA levels in transfected HEK293T cells; type: cell-based, human; conditions: 10 μM, 24 h
[17] = Tissue pantothenate levels in mice; type: in vivo; conditions: C57Bl6/J, mouse, liver; 200 mg/kg pantothenate by oral gavage, 4 h after last of 5 doses; read-out: calculated intracellular pantothenate concentration in liver
Experimental: Plasma (10 μl) was added to 800 μl methanol and 190 μl water along with 200 pmol (β-alanyl-^13C3^15N)-pantothenate (^13C^15N-Pan, Sigma). Tissue (30–40 mg) was homogenized in 2 ml of 80% methanol, and 500 pmol of ^13C^15N-Pan was added. The samples were incubated at −80 °C for 4 h. Samples were spun at 3500xg for 10 min to pellet debris, and supernatant was transferred to a new tube and dried using a SpeedVac overnight. Samples were resuspended in water + 0.1% formic acid and spun through a Spin-X Centrifuge Tube Filter (0.22 μm Cellulose Acetate, Costar).
Pantothenate was analyzed using a Shimadzu Prominence UFLC attached to a QTrap 4500 equipped with a Turbo V ion source (Sciex). Samples were injected onto an XSelect® HSS C18, 2.5 μm, 2.1 × 150 mm column using a flow rate of 0.2 ml/min. Solvent A was 0.1% formic acid in water, and Solvent B was acetonitrile + 0.1% formic acid. […] The MRM transition for pantothenate was 220.0 / 184.1 m/z and [^13C^15N]pantothenate was 224.0 / 188.1 m/z both with a declustering potential, 35 V and collision energy, 22 V. The system was controlled by the Analyst® software (Sciex) and analyzed with MultiQuant™ 3.0.2 software (Sciex). Intracellular pantothenate was measured as pmoles/mg wet weight.

Row | IC50 [11] [µM] | inhibition of PANK3 (in words) ([11]; negative control) | fraction unbound [13] | fraction unbound [14] | efflux ratio [15] | concentration at 4 h [17] [µM] | SMILES | Papp [1] [×10⁻⁶ cm/s] | half-life [2] [h] | half-life [3] [h] | half-life [4] [h] | solubility [5] [µM] | half-life [6] [min] | PAMPA; Avg Pe [7] | half-life [8] [min] | fraction unbound [9] | half-life [10] [min] | total intracellular CoA levels in C3A cells ([12]; 24 h, increasing concentrations (20 and 50 μM less activating)) | intracellular CoA, PANK3 overexpressing HEK293T cells [16] | CoA content of C3A cells on varying pantothenate in medium ([12]; pantothenate alone, without PZ-2891)
1 | – | – | – | – | – | – | CC(C)(C)c1ccc(NC(=O)N2CCN(c3ccc(C#N)cn3)CC2)cc1 [PZ-2789, N-(4-(tert-butyl)phenyl)-4-(5-cyanopyridin-2-yl)piperazine-1-carboxamide] | 303 | > 50 | > 50 | > 50 | 1.4 (≈ 0.509 µg/mL) | 7.8 | 1232 10-6 cm/s | 30.6 | 0.02 | 15.6 | – | – | –
2 | – | – | – | – | – | – | CC(C)c1ccc(CC(=O)N2CCN(c3ccc(C#N)cn3)CC2)cc1 [PZ-2863] | – | – | – | – | 25 (≈ 8.71 µg/mL) | – | – | – | – | – | – | – | –
3 | > 100 | no effect; also recorded: Inactive | 0.04 | 0.04 | 0.5 | – | CC(C)c1ccc(C(=O)CN2CCN(c3ccc(C#N)nn3)CC2)cc1 [PZ-3067, 6-(4-(2-(4-isopropylphenyl)-2-oxoethyl)piperazin-1-yl)pyridazine-3-carbonitrile] | 0.8 | 27 | > 50 | > 50 | 18 (≈ 6.29 µg/mL) | 9 | 204 10-6 cm/s | 13.2 | 0.1 | 30.6 | did not respond | inactive | –
4 | – | – | – | – | – | 24.4 | CC(C)(CO)[C@@H](O)C(=O)NCCC(=O)O [pantothenate, D-pantothenic acid, hemicalcium salt] | – | – | – | – | – | – | – | – | – | – | – | – | no effect on CoA content
